# Source: patent publication US20180235860A1, “USE OF DIETHANOLAMMONIUM DERIVATIVES AS SKIN MOISTURIZER” (L'OREAL, priority 2015, published 2018)
# Test system: isolated stratum corneum (SC)
# Assay: Moisturizing potential on isolated stratum corneum by measurement with a Corneometer (dielectric capacitance)
# Details: for Mean DHCMi corr. active agent: vehicle-corrected; for Dielectric capacitance of the stratum corneum / moisturizing effect in comparison with glycerol at the same concentration: 5% by weight, result in words
# Protocol: B): Evaluation of the Moisturizing Potential on Isolated Stratum Corneum by Measurement with a Corneometer
# A test was performed to evaluate the moisturizing potential of the compounds of the invention formulated in an aqueous solution to an amount of 5% by weight relative to the total weight of the composition.
# The technique makes it possible to measure the dielectric capacitance of stratum corneum (SC), which depends on the mean dielectric permittivity value of the tissue. The dielectric permittivity varies greatly with the amount of water contained in the SC.
# The SC samples are conditioned at 75% relative humidity and at 25° C. before/during the measurements and the treatment. The capacitance measurement is performed using a Corneometer™ (Courage & Khazaka, Germany).
# The test compound, compound 2 according to the invention or a moisturizing active agent such as glycerol, is dissolved in a water/n-propanol mixture (80/20) and the solution is deposited onto the SC at a rate of 10 μl/cm^2 followed by air-drying for a total duration of 1 hour 30 minutes.
# Measurement is taken at T0, before the treatment, and a measurement Ttreat is taken after total drying of the treatment.
# Each treatment is systematically compared with its control (vehicle) and with its T0.
# Using at least two different batches of SC, four to five SC samples are measured per treatment.
# The variation in the corneometer signal (HCM) after treatment is calculated first for each SC sample: DHCMi=HCMi(Ttreat)−HCMi(T0). The mean of the DHCMi(vehicle) variations is then calculated for the control samples (treated with the vehicle); this mean value is subtracted from all the DHCMi(active agent) variations to correct the systematic bias.
# The following is measured for each sample i: • For the vehicle (control): DHCMi(veh)=HCMiveh(Ttreat)−HCMiveh(T0) • For the active agent: DHCMiactive agent=HCMiactive agent(Ttreat)−HCMiactive agent(T0)
# To correct the systematic bias associated with the vehicle, the corrected value DHCMicorr. active agent is considered for the active agent according to: DHCMicorr. active agent−DHCMiactive agent−M
# in which M corresponds to the mean of the DHCMi(veh) variations observed on the n control samples:
# The mean DHCMi corr. active agent values, and also the associated standard deviations that were obtained, are reported in the table below for compound 2 tested at 5%, in comparison with glycerol at 5%: […]
# [1] = 5% by weight in water/n-propanol mixture (80/20), 10 μl/cm2 on SC, 75% RH, 25° C., table for compound 2 vs glycerol
# [2] = 5% by weight in water/n-propanol mixture, table for compounds 13 and 14 vs glycerol
structure (smiles),measurement,setting,value
C[N+](C)(CCO)CCO.[Cl-] [Compound 2],Mean DHCMi corr. active agent,[1],25.9
same,Dielectric capacitance of the stratum corneum / moisturizing effect in comparison with glycerol at the same concentration,,much better
CC(O)C(=O)[O-].C[N+](C)(CCO)CCO [Compound 13],Mean DHCMi corr. active agent,[2],14
same,Dielectric capacitance of the stratum corneum / moisturizing effect in comparison with glycerol at the same concentration,,better
"OCC(O)CO [Glycerol, glycerol, reference compound]",Mean DHCMi corr. active agent,[1],13.8
same,Mean DHCMi corr. active agent,[2],11
